The text below walks through data of US9862713B2, “Substituted bicyclic heteroaryl compounds as RXR agonists” (CONNEXIOS LIFE SCIENCES PVT. LTD., priority 2014, dated 2018).

Assay [1] concerns MIA PaCa-2 cells. Nature of the assay: MIA PaCa-2 cell growth (cell count). It counts as cell-based. The note with it: 0.1 uM and higher (up to 10.0 uM); day 2, 4 and 6. The protocol:
Cancer is characterized by uncontrolled cell growth. Any agent which can reduce the cellular growth will have high therapeutic potentials. […] MIA PaCa-2 cells (ATCC) were seeded in a 6-well plate (20,000 cells per well) in DMEM containing 25 mM glucose, 10% FBS, 2.5% horse serum in presence or absence of different concentrations of compound-40 as mentioned. Cells were harvested on day 2, day 4 and day 6, and cell numbers were measured. MIA PaCa-2 cells were grown with or without different concentrations of compound-40 (0.0, 0.1, 0.3, 1.0, 3.0 and 10.0 uM) and cell growth was measured by cell count at different time points (day 2, 4 and 6).

The subject of another assay is DIO mice. In words: Compound 40 with exercise on metabolic profile in DIO mice; exercise endurance (tread mill) test. The assay is classed as in vivo, male C57BL/6J mice. The protocol:
Exercise endurance test or tread mill test (TMT): Exercise endurance test was accomplished on a motor treadmill at a low to moderate intensity of 5-20 cm/sec as maximal running speed with an intensity of 0.2 mA shock and one degree of inclination. The animals were subjected for TMT till exhaustion and different observations like distance traveled (cm), time spent on shock zone (sec), number of shocks, total time (min) were measured for all the mice in different groups.
Six week old male C57BL/6J mice were selected, acclimatized for a period of 1 week, Animals were assigned to either chow (10% kcal from fat) or high fat diet (HFD) (D12492; 60% kcal from fat), Research Diets, Inc., New Jersey, USA. After 11 weeks of the diet intervention, the HFD fed animals were assigned to specific treatment groups based upon body weight, glucose AUC during OGTT, fasting and fed blood glucose and fasting TG. The lean control mice (n=10) were fed with normal chow diet while the treatment group (n=10) and HFD Control (n=10), with and without exercise training, with high fat diet throughout the experimental period. Treatment group received Compound 40 with and without exercise training, at a dose of 10 mg/kg b.wt, once daily, po as suspension in 1% MC (methyl cellulose) as vehicle. Lean control and HFD controls animals were administered with vehicle. Exercise training was accomplished on a motor treadmill at a low to moderate intensity of 5-20 cm/sec as maximal running speed with an intensity of 0.2 mA shock and one degree of inclination. The animals were adapted to this procedure 5 days a week and different observations like distance traveled (cm), time spent on shock zone (sec), number of shocks, total time (min) will be measured for all the mice in different groups. Weekly body weight & daily feed consumption was recorded. The blood collected from tail vein was subjected for estimation of glucose and TG. OGTT was performed in 6 h fasted mice with 2 g/kg, of oral glucose challenge after 4 and 8 weeks of treatment. Then animals were euthanized and necropsied, the liver was excised immediately, weighed and taken to estimate liver triglyceride (TG). Different adipose depots were separated and weighed.

The test system of another assay is hRXR α, β, or γ. Nature of the assay: Transactivation assay (RARE-Luc dual luciferase reporter in HEK-293 cells), activity relative to LG268. The assay is classed as cell-based, human. The note with it: 24 h, luciferase activity expressed relative to LG268. Put shortly: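 HEK-293 cells co-transfected with hRXR α, β or γ expression vector, RARE-firefly luciferase and renilla luciferase; 24 h later treated with agonist (100 nM, 300 nM, 1 uM) for 24 h. Firefly signal normalized to renilla; activity expressed relative to the RXR agonist LG268.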
(A reporter such as luciferase makes a cellular process visible.)

Assay [2] relates to MCF7 breast cancer cell line. Nature of the assay: MCF7 breast cancer cell line: growth, BrdU incorporation, ROS, DNA fragmentation. The assay is classed as cell-based.
Assay [3] deals with MIA PaCa-2 cells. Nature of the assay: Cell death (DNA fragmentation) in MIA PaCa-2 cells. It counts as cell-based. The protocol: Caspase-3 activity was measured using its ability to cleave its substrate (Ac-DEVD-R110). Increased Caspase-3 activity would lead to higher release of fluorescent R110 which was measured at 485 nm excitation and 530 nm emission. Activity of caspase-3 (as nano-moles of R110 released) was normalized to total cellular protein. […] Cell death was measured by increased levels of DNA fragments as per manufacturer's protocol (Roche) and was normalized to total cellular DNA. Data are represented as % of control.

`CC1(C)CCC(C)(C)c2sc(N(CC3CC3)c3ccc(C(=O)O)cn3)nc21` [Compound 40, 6-[(Cyclopropylmethyl) (4,4,7,7-tetramethyl-4,5,6,7-tetrahydro-1,3-benzothiazol-2-yl)amino]pyridine-3-carboxylic acid]: in the assay with MIA PaCa-2 cells [1], the “cell growth (cell count)” value is recorded as “significant reduction in cell growth”. In the assay on DIO mice (10 mg/kg b.wt, once daily, po), the Body weight entry is “improvement was also observed”, the OGTT levels result is on record as “significant improvement”, the “fasting TG levels” value was “improvement was also observed” and the fasting glucose result was “significant improvement”. In addition, the muscle endurance entry with DIO mice (DIO mice, tread mill test) is on record as “significantly improves muscle endurance”. In the assay with hRXR α, β, or γ (compound at 300 nM), the “Activity at 300 nM” value is listed as “***** (>0.6)”. Also, the “Activity at 1 µM” value with hRXR α, β, or γ (compound at 1 µM) is recorded as “**** (>0.9 to <1)”. In assay [2] (MCF7), the BrdU incorporation result is recorded as “significantly reduced”, the “apoptosis (DNA fragmentation)” value was “increased levels of apoptosis” and the “cellular stress (ROS levels)” value was “significant increase in cellular stress”. Further, in assay [2] (MCF7, 3 uM), the cell growth result was “reduced cell growth”. For the same compound, the “cell death (DNA fragmentation)” value in the assay on MIA PaCa-2 cells [3] is on record as “increased cell death”.
